Reference: patent US20230192764A1, “NOVEL DOPAMINE PRECURSORS” (Yissum Research Development Company of the Hebrew …, priority 2018, published 2023)
“And” between values parts separate entries of the source, which are not always exact repeats. Equal entries are not always repeated.

Assays:
[1] = test system: Rotenone -induced model of Parkinson's disease (PD) in rats; assay: Rat beam walk test, rotenone model; type: in vivo, Sprague Dawley rats; conditions: for beam end time: individual rat, listed as SDA
Description: (§1) 1-SD (Rotenone + SD); 2 - SDA (Rotenone + SDA); 3 - Control (Rotenone); 4 -Naive. The experimental groups were comprised of 6 animals for treated groups (1-3) and 2 animals in naive group (4). Rotenone was administrated 3.0 mg/kg intraperitoneally (IP) once a day in the morning (days 1-9). SD 33 mg/kg and SDA 33 mg/kg were administrated intraperitoneally once a day in the afternoon (days 1-9).
(§2) Rearing behavior, rotarod and beam walk tests were performed before initiation of treatment (day 0) as well as on days 4, 8 and 10 of the experiment.
(§3) IP administration: Rotenone was administrated to groups 1-3. Rotenone was injected intraperitoneally at a dose 3.0 mg/kg once a day in the morning (days 1-9). SD and SDA was administrated both at a dose of 33 mg/kg and were injected intraperitoneally once a day in the afternoon (days 1-9). Group number 4 was untreated, and remained as a naive group.
Animals were gently placed on 1 m long narrow aluminum beam facing one of the ends and allowed to walk to the end of the beam.

[2] = test system: human neuroblastoma cells (SH-SY5Y); assay: Viability of SH-SY5Y cells after auranofin (AuF) challenge, methylene blue staining; type: cell-based; conditions: SH-SY5Y pre-treated with 5 µM AuF 30 min, washed, compound added, viability 24 h later
Description: Viability of cells pre-treated with 5 µM AuF for 30 min, washed and later exposed to increasing concentrations of SD-444, was determined 24 h later.
A) The anti-apoptotic activity of SD-444 was tested on human neuronal cells SH-SY5Y. The cells were challenged by auranofin (AuF) that induces cellular stress by selectively blocking the thioredoxin reductase activity.
SH-SY5Y cells were plated on 96-well plates and treated with AuF in different concentrations for 30 min. Then the cells were washed with PBS and treated as indicated. Twenty-four hours later, the cells were fixed with glutaraldehyde in final concentration of 0.5% for 10 min. Cells were washed 3 times with DDW dried overnight, and washed once with borate buffer (0.1 M, pH 8.5). The fixed cells were stained with 200 µl of 1% methylene blue dissolved in borate buffer for 1 h. After extensive washing and drying, the color was extracted with 200 µl of 0.1 M HCl for 1 h at 37° C. and absorbance was read in spectrophotometer at 630 nm.

[3] = test system: Rotenone -induced model of Parkinson's disease (PD) in rats; assay: Rotarod behavior assay, rotenone model; type: in vivo, Sprague Dawley rats; conditions: for R.R (rotarod): individual rat, listed as SDA
Description: as §1, §2, §3
The test was used to evaluate motor coordination and balance. Apparatus was set to accelerate from 4 to 40 rpm in 300 s, and animals from same cage are placed in separate lanes on rod initially rotating at 4 rpm.

[4] = test system: p38MAPK phosphorylation; assay: AuF-induced phosphorylation of p38MAPK in SH-SY5Y cells, western blot; type: cell-based, human; conditions: summary statement
Description: Cells were treated with 10 µM AuF with or without SD-444. Phosphorylation was determined by western blot analysis. The amount of each band was quantitated by densitometry and plotted with a linear regression program normalized with β catenin (b-cat).
(§4) In the assay, twenty to thirty micrograms of protein samples were loaded on 10-12% SDS-PAGE gels. The proteins were then transferred electrophoretically to nitrocellulose (Whatman, Germany). The blots were blocked by incubation for 1 h at RT in TBS-T (25 mM Tris-HCl pH 7.4, 0.9% NaCl and 0.02% Tween-20) with 4% Difco skim milk (BD, USA), and incubated over-night at 4° C. with the primary antibody: p-p38^MAPK (Thr180/Tyr182), rabbit mAb; p38, rabbit Ab.

[5] = test system: JNK phosphorylation; assay: AuF-induced phosphorylation of JNK in SH-SY5Y cells, western blot; type: cell-based, human
Description: SH-SY5Y cells were treated with 10 µM AuF with or without SD-444. Phosphorylation was determined by western blot analysis. The amount of each band was quantitated by densitometry and plotted with a linear regression program normalized to total JNK.
as §4
In the assay, twenty to thirty micrograms of protein samples were loaded on 10-12% SDS-PAGE gels. The proteins were then transferred electrophoretically to nitrocellulose (Whatman, Germany). The blots were blocked by incubation for 1h at RT in TBS-T (25 mM Tris-HCl pH 7.4, 0.9% NaCl and 0.02% Tween-20) with 4% Difco skim milk (BD, USA), and incubated over-night at 4° C. with the primary antibody: p-JNK^MAPK, and β-catenin.

[6] = test system: ERK1/2 phosphorylation; assay: AuF-induced phosphorylation of ERK1/2 in PC12 cells, western blot; type: cell-based; conditions: 10 µM AuF, normalized to total ERK2, read-out: EC50, lowering of AuF induced activation of ERK1/2
Description: Cells were treated with 10 µM AuF with or without SDA-341. Phosphorylation was determined by western blot analysis (FIG. 6A). The amount of each band was quantitated by densitometry (FIG. 6B) and plotted with a linear regression program normalized to total ERK2 (FIG. 6C).
The ability of SDA-341 to lower AuF induced activation of ERK1/2 in PC12 cells with the corresponding anti ERK1/2 and ERK2 antibodies was also tested, as shown in FIG. 6. Calculated EC50=80µM.

[7] = test system: Rotenone -induced model of Parkinson's disease (PD) in rats; assay: Rat rearing behavior (cylinder) test, rotenone model; type: in vivo, Sprague Dawley rats; conditions: for Cylinder rise and touch (number of rears in 2 min): individual rat, listed as SDA
Description: as §1, §2, §3
Animals were placed in a clear glass cylinder (40 cm high and 20 cm diameter) and number of rears in 2 min was observed. Rear was considered as animals raised their hands above the shoulder and made contact with the wall of cylinder with their forelimb.

[8] = average n=6, day 0 (before treatment)
[9] = day 0 (before treatment), rotenone 3 mg/kg + compound 33 mg/kg IP
[10] = rats, rotenone 3.0 mg/kg IP + compound 33 mg/kg IP, days 1-9

Structure (SMILES): CC(=O)NC(CS)C(=O)NC(Cc1cccc(O)c1O)C(N)=O (centres unmarked) [SDA-341, Acetyle-Cys-2,3 dihydroxyphenylalanine-amide]
- beam end time, group average [1, 8]: 9.50 s
- beam end time, group average ([1]; average n=6, day 4): 17.50 s
- beam end time, group average ([1]; average n=6, day 8): 25.67 s
- beam end time, group average ([1]; average n=6, day 10): 20.33 s
- beam end time [1, 9]: 7 s and 3 s and 10 s and 8 s and 12 s and 17 s
- beam end time ([1]; day 4): 12 s and 32 s and 14 s and 21 s and 10 s and 16 s
- beam end time ([1]; day 8): 16 s and 23 s and 52 s and 18 s and 19 s and 26 s
- beam end time ([1]; day 10): 22 s and 17 s and 34 s and 10 s and 21 s and 18 s
- Walk-beam test, reversal of rotenone induced imbalance [1, 10]: very effective
- neuronal cell-viability after AuF [2]: increase viability
- R.R (rotarod), group average [3, 8]: 285.17 s
- R.R (rotarod), group average ([3]; average n=6, day 4): 286.33 s
- R.R (rotarod), group average ([3]; average n=6, day 8): 266.33 s
- R.R (rotarod), group average ([3]; average n=6, day 10): 227.00 s
- R.R (rotarod) [3, 9]: 278 sec and 300 sec (2×) and 269 sec and 290 sec
- R.R (rotarod) ([3]; day 4): 298 sec and 274 sec and 263 sec and 300 sec (2×) and 283 sec
- R.R (rotarod) ([3]; day 8): 281 s and 249 s and 234 s and 277 s and 268 s and 289 s
- R.R (rotarod) ([3]; day 10): 270 s and 195 s and 123 s and 260 s and 243 s and 271 s
- rotarod test, motor dysregulation mediated by rotenone [3, 10]: significantly reversed
- p38 phosphorylation (AuF-triggered) [4]: inhibit
- EC50 ([5]; 10 µM AuF, western blot densitometry, read-out: EC50 in reduction of JNK activation): 100 µM
- JNK phosphorylation (AuF-triggered) ([5]; summary statement): inhibit
- EC50 [6]: 80 µM
- Cylinder rise and touch, group average [7, 8]: 12.83
- Cylinder rise and touch, group average ([7]; average n=6, day 4): 12.67
- Cylinder rise and touch, group average ([7]; average n=6, day 8): 14.83
- Cylinder rise and touch, group average ([7]; average n=6, day 10): 12.50
- Cylinder rise and touch (number of rears in 2 min) [7, 9]: 18 (2×) and 9 and 12 (2×) and 8
- Cylinder rise and touch (number of rears in 2 min) ([7]; day 4): 14 (2×) and 12 and 11 and 15 and 10
- Cylinder rise and touch (number of rears in 2 min) ([7]; day 8): 15 and 19 (2×) and 8 and 12 and 16
- Cylinder rise and touch (number of rears in 2 min) ([7]; day 10): 11 and 14 (2×) and 9 and 10 and 17
- Cylinder test, maintaining locomotor activity in Rotenone-treated rats [7, 10]: very effective
